The source of these data is article PMC5547389, “Structure-activity relationships and molecular docking studies of chromene and chromene based azo chromophores: A novel series of potent antimicrobial and anticancer agents” (EXCLI Journal, 2017).

≈ marks a conversion by molar mass, not a printed value.

Series [1] has as its system Geotricum candidum (RCMB 05097). Nature of the series: MIC by serial dilution method. The series is classed as cell-based. Particulars: fungi; read-out: Minimum inhibitory concentration, MIC, G.C. The procedure: (§1) All the newly synthesized compounds described in this report were screened for both antibacterial and antifungal activity via the reported agar diffusion well method (Vanden Berghe and Vlietinck, 1991[62]). The inhibition zones and minimum inhibitory concentrations (MIC) were determined by the serial dilution method (Cappuccino and Sherman, 1999[12]). The antimicrobial activity of the synthesized compounds was tested against a broad panel of microorganisms including two Gram-positive bacteria: Streptococcus pneumoniae (RCMB 010010) and Bacillus subtilis (RCMB 010067), two Gram-negative bacteria: Pseudomonas aeruginosa (RCMB 010043) and Escherichia coli (RCMB 010052), and four fungi: Aspergillus fumigatus (RCMB 02568), Syncephalastrum racemosum (RCMB 05922), Geotricum candidum (RCMB 05097), and Candida albicans (RCMB 05036). Ampicillin, ciprofloxacin, gentamicin and amphotericin B were used as positive control drugs (Atta-ur-Rahman and Thomsen, 2001[7]; Smania et al., 1999[57]). […] While in the case of Gm-ve bacteria, they had weak activity. In addition, certain strains of fungi were sensitive to tested compounds with an IZ range from 12-25 except Candida albicans.

The test system of series [2] is Aspergillus fumigatus (RCMB 02568). Description: MIC by serial dilution method. The series is classed as cell-based. The note with it: RCMB02568, fungi, read-out: Minimum inhibitory concentration, MIC, A.F. Here is the method: as §1
The test system of series [3] is Syncephalastrum racemosum (RCMB 05922). Nature of the series: MIC by serial dilution method. The series is classed as cell-based. Particulars: RCMB05922, fungi, read-out: Minimum inhibitory concentration, MIC, S.R. Here is the method: as §1
Series [4] has as its system Candida albicans (RCMB 05036). Description: Well diffusion assay (inhibition zone). The series is classed as cell-based. The note with it: RCMB05036, 5 mg/mL in DMSO, fungi, read-out: Inhibition Zone (IZ) diameter, C.A. The essentials:
(§2)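 Agar well diffusion with 10 mm wells, nutrient agar for bacteria and malt extract agar for fungi. Plates were incubated 24-48 h at 37 °C for bacteria or 28 °C for fungi. Inhibition zone diameters were measured in mm, in triplicate.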
Background: Agar diffusion results depend on both activity and mobility in agar.

In series [5] the test system is Geotricum candidum (RCMB 05097). Description: Well diffusion assay (inhibition zone). In kind it is cell-based. Particulars: 5 mg/mL in DMSO; fungi; read-out: Inhibition Zone (IZ) diameter, G.C. The gist of the method: as §2
Series [6] relates to Aspergillus fumigatus (RCMB 02568). Description: Well diffusion assay (inhibition zone). The note with it: RCMB02568, 5 mg/mL in DMSO, fungi, read-out: Inhibition Zone (IZ) diameter, A.F. The series is classed as cell-based. The gist of the method: as §2
For series [7], the system named is Syncephalastrum racemosum (RCMB 05922). Nature of the series: Well diffusion assay (inhibition zone). In kind it is cell-based. The note with it: RCMB05922, 5 mg/mL in DMSO, fungi, read-out: Inhibition Zone (IZ) diameter, S.R. The essentials: as §2
Series [8] deals with Escherichia coli (RCMB 010052). Description: Well diffusion assay (inhibition zone). In kind it is cell-based. Particulars: RCMB010052, 5 mg/mL in DMSO, Gm-ve, read-out: Inhibition Zone (IZ) diameter, E.C. The gist of the method: as §2
The subject of series [9] is Streptococcus pneumoniae (RCMB 010010). Nature of the series: Well diffusion assay (inhibition zone). In kind it is cell-based. The note with it: RCMB010010, 5 mg/mL in DMSO, Gm+ve, read-out: Inhibition Zone (IZ) diameter, S.P. The gist of the method:
as §2

In series [10] the test system is Bacillus subtilis (RCMB 010067). Nature of the series: Well diffusion assay (inhibition zone). In kind it is cell-based. The note with it: RCMB010067, 5 mg/mL in DMSO, Gm+ve, read-out: Inhibition Zone (IZ) diameter, B.S. The gist of the method: as §2
Series [11] concerns human breast adenocarcinoma (MCF-7). Nature of the series: Cytotoxic screening. Particulars: Homo sapiens, MCF7; read-out: IC50 MCF-7. In kind it is cell-based. The essentials: (§3)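 Read-out is crystal violet staining (the text also names MTT), lysis in 33 % acetic acid, A590, with untreated cells as 100 %. IC50 was estimated graphically from survival curves.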
Series [12] has as its system human hepatocellular carcinoma (HEPG-2). Description: Cytotoxic screening. The series is classed as cell-based. Particulars: HepG2, read-out: IC50 HepG-2. The essentials:
as §3

Series [13] has as its system Human colon carcinoma (HCT-116). Description: Cytotoxic screening. In kind it is cell-based. The note with it: Homo sapiens, HCT-116; read-out: IC50 HCT-116. The gist of the method:
as §3

The subject of series [14] is Gm+ve bacteria, Gm-ve bacteria, fungi. Nature of the series: Well diffusion assay, statements over groups of microorganisms. The series is classed as cell-based. The procedure:
The microorganism inoculums were uniformly spread using sterile cotton swabs on a sterile Petri dish malt extract agar (for fungi) and nutrient agar (for bacteria). One hundred cubic millimeters of each sample was added to each well (10 mm-diameter holes were cut in the agar gel, 20 mm apart from one another). The systems were incubated for 24-48 h at 37 °C (for bacteria) and at 28 °C (for fungi). After incubation, the microorganism growth was observed. Inhibition zones of the bacterial and fungal growth were measured in millimeters. Tests were performed in triplicate (Cappuccino and Sherman, 1999[12]; Vanden Berghe and Vlientinck, 1991[62]).
All the newly synthesized compounds described in this report were screened for both antibacterial and antifungal activity via the reported agar diffusion well method (Vanden Berghe and Vlietinck, 1991[62]). The inhibition zones and minimum inhibitory concentrations (MIC) were determined by the serial dilution method (Cappuccino and Sherman, 1999[12]). […]

On to `C[C@@H]1[C@H](O)[C@@H](C)/C=C/C=C/C=C/C=C/C=C/C=C/C=C/[C@H](O[C@@H]2O[C@H](C)[C@@H](O)[C@H](N)[C@@H]2O)C[C@@H]2O[C@](O)(C[C@@H](O)C[C@@H](O)[C@H](O)CC[C@@H](O)C[C@@H](O)CC(=O)O[C@H]1C)C[C@H](O)[C@H]2C(=O)O` [Amphotericin B, reference compound], for which the MIC in series [1] was 0.015 mg/L (≈ 0.0162 µM); in [2], 0.24 mg/L (≈ 0.26 µM); in series [3] it was 3.9 mg/L (≈ 4.22 µM). In addition, the zone of inhibition at 5000 µg/mL in [4] stood at 25.4 mm; in series [5], 28.7 mm; in [6], 23.7 mm; in series [7] it was 19.7 mm.

`CC(=O)c1ccc(N=Nc2cc3c(cc2O)OC(N)=C(C#N)C3c2ccc(F)cc2)cc1` (stereo not drawn) [13d, 6-(4-Acetyl-phenylazo)-2-amino-4-(4-fluoro-phenyl)-7-hydroxy-4H-chromene-3-carbonitrile] registered a melting point of 265 °C. For the same compound, the zone of inhibition at 5000 µg/mL in series [8] was determined as 10.8 mm. Further, in [4], the zone of inhibition at 5000 µg/mL was 8 mm. The zone of inhibition at 5000 µg/mL in [9] came out at 12.9 mm. The zone of inhibition at 5000 µg/mL in [10] came out at 13.2 mm. The zone of inhibition at 5000 µg/mL in [6] is 13.4 mm. In series [7], the zone of inhibition at 5000 µg/mL was 11.4 mm. Further, in series [11], the IC50 is 80 mg/L (≈ 187 µM). For the same compound, the IC50 in series [12] amounted to 85 mg/L (≈ 198 µM). The IC50 in series [13] came to 75 mg/L (≈ 175 µM).

For the compound `COc1ccc(C2C(C#N)=C(N)Oc3c2ccc2c(N)cccc32)cc1` (stereo not drawn) [7b, 2,7-Diamino-4-(4-methoxy-phenyl)-4H-benzo[h]chromene-3-carbonitrile], the melting point came out at 185 °C. Moreover, in [14], the “IZ range against Gm+ve, Gm-ve bacteria, and fungi” value is 18-23 mm. In series [8], the zone of inhibition at 5000 µg/mL was 22.1 mm. Further, in series [9], the zone of inhibition at 5000 µg/mL was found to be 22.4 mm. Besides, the zone of inhibition at 5000 µg/mL in series [10] came out at 23.2 mm. Besides, the zone of inhibition at 5000 µg/mL in [5] was 22.6 mm. Also, the zone of inhibition at 5000 µg/mL in series [6] came out at 21.6 mm. Besides, the zone of inhibition at 5000 µg/mL in series [7] turned out to be 20.3 mm. Also, the IC50 in series [11] is 25.9 mg/L (≈ 75.4 µM). For the same compound, the IC50 in [12] is 28.2 mg/L (≈ 82.1 µM). Also, in series [13], the IC50 amounted to 44.1 mg/L (≈ 128 µM).

Compound `N#CC1=C(N)Oc2c(ccc3c(N)cccc23)C1c1c(F)cc(F)cc1F` (stereo not drawn) [7d, 2,7-Diamino-4-(2,4,6-trifluoro-phenyl)-4H-benzo[h]chromene-3-carbonitrile] returned a melting point of 235 °C. The “IZ range against Gm+ve, Gm-ve bacteria, and fungi” value in series [14] was 18-23 mm. Moreover, in series [8], the zone of inhibition at 5000 µg/mL was 20.8 mm. The zone of inhibition at 5000 µg/mL in series [9] is 21.6 mm. Moreover, the zone of inhibition at 5000 µg/mL in series [10] came out at 22.3 mm. For the same compound, in series [5], the zone of inhibition at 5000 µg/mL was 22.4 mm. For the same compound, the zone of inhibition at 5000 µg/mL in [6] stood at 20.3 mm. In addition, in [7], the zone of inhibition at 5000 µg/mL stood at 18.1 mm. Moreover, the IC50 in series [11] came out at 54 mg/L (≈ 147 µM). The IC50 in series [12] came out at 52.3 mg/L (≈ 142 µM). In addition, in series [13], the IC50 worked out at 61.3 mg/L (≈ 167 µM).

Broadly, the melting point is the temperature, or range, at which the solid turns liquid. One may read the IC50 as the concentration at which inhibition is half-maximal.
